# Laboratory results published in patent US20240025884A1 (Dong-A ST Co., Ltd., priority 2022, published 2024).
# Molecular target: GCN2 (Homo sapiens (Human), UniProt Q9P2K8)
# Assay: GCN2 Biochemical Assay (TR-FRET, GFP-eIF2S1 substrate phosphorylation)
# Details: read-out: IC50 (GCN2 Inhibitory Activity)
# Summary of the method: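 TR-FRET readout (Ex 340, Em 490/520 nm) after 2–3 h with Tb-labelled phospho-eIF2S1 antibody in stop mix, following a 70 min room-temperature kinase step. Reaction: in-house GCN2, GFP-eIF2S1, ATP, tRNA in Tris pH 7.5 (2× stocks 1.6 nM, 50 nM, 0.2 mM); compounds tested at 10 concentrations, with a phospho-substrate artifact counter-plate.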
# Sequence of GCN2 (Q9P2K8 whole entry): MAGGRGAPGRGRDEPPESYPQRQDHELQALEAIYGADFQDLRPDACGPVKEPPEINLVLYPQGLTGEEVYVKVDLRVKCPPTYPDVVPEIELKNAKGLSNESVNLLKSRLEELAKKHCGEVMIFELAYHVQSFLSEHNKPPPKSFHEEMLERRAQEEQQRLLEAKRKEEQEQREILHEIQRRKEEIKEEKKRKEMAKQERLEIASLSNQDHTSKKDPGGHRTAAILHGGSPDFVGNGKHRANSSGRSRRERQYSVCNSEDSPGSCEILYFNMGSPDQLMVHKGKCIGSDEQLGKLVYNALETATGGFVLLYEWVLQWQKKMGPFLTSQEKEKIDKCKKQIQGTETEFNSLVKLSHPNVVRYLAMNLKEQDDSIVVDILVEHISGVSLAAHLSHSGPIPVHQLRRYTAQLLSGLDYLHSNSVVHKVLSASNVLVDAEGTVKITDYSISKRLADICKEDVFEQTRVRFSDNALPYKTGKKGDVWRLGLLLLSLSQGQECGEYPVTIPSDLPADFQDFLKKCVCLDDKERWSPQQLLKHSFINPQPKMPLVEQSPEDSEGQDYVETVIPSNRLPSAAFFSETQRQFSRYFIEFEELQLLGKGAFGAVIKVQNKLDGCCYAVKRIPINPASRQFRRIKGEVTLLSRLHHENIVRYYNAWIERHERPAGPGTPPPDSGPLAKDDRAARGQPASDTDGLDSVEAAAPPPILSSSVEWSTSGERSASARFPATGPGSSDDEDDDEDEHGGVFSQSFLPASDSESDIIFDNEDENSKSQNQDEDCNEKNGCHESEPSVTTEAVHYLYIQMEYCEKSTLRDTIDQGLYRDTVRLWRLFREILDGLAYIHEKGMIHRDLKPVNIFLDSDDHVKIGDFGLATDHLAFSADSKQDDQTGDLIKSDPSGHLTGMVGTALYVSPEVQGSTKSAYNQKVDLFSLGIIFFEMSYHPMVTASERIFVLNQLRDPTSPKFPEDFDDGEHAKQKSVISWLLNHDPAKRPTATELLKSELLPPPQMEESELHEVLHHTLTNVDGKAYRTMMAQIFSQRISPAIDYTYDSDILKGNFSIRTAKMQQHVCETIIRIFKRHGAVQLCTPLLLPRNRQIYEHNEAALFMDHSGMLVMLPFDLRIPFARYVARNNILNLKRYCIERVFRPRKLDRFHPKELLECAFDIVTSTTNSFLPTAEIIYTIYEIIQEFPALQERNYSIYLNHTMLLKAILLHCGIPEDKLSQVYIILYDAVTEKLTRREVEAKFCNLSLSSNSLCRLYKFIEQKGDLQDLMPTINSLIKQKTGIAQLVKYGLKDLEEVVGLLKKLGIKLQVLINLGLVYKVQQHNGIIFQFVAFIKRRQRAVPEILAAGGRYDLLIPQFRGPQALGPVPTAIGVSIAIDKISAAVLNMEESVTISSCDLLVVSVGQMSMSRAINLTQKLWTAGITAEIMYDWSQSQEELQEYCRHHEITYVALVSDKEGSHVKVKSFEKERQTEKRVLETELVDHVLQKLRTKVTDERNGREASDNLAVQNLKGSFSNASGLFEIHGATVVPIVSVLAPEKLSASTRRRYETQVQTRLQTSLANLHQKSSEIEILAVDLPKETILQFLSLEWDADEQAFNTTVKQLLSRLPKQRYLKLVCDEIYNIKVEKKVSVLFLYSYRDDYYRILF
row,Structure (SMILES),IC50
1,"Cc1cnc(Nc2cc(C)n(C)n2)nc1-c1c[nH]c2c(NC(=O)CN3CC[C@H](Oc4cc(C(F)(F)F)nc(N)n4)C3)cccc12 [Example 99, (S)-2-(3-((2-amino-6-(trifluoromethyl)pyrimidin-4-yl)oxy)pyrrolidin-1-yl)-N-(3-(2-((1,5-dimethyl-1H-pyrazol-3-yl)amino)-5-methylpyrimidin-4-yl)-1H-indol-7-yl)acetamide]",10 to 100 nM
2,"Cc1cnc(Nc2cc(C)n(C)n2)nc1-c1c[nH]c2c(NC(=O)CN3CC[C@H](Oc4ccc(-c5ccccc5)cc4)C3)cccc12 [Example 100, (S)-2-(3-([1,1′-biphenyl]-4-yloxy)pyrrolidin-1-yl)-N-(3-(2-((1,5-dimethyl-1H-pyrazol-3-yl)amino)-5-methylpyrimidin-4-yl)-1H-indol-7-yl)acetamide]",100 to 1000 nM
3,"Cc1cnc(Nc2cc(C)n(C)n2)nc1-c1c[nH]c2c(NC(=O)CN3CC[C@H](Oc4ccc(C(C)(C)c5ccccc5)cc4)C3)cccc12 [Example 101, (S)-N-(3-(2-((1,5-dimethyl-1H-pyrazol-3-yl)amino)-5-methylpyrimidin-4-yl)-1H-indol-7-yl)-2-(3-(4-(2-phenylpropan-2-yl)phenoxy)pyrrolidin-1-yl)acetamide]",> 1000 nM
4,"CCCCCc1cnc(O[C@H]2CCN(CC(=O)Nc3cccc4c(-c5nc(Nc6cc(C)n(C)n6)ncc5C)c[nH]c34)C2)nc1 [Example 102, (S)-N-(3-(2-((1,5-dimethyl-1H-pyrazol-3-yl)amino)-5-methylpyrimidin-4-yl)-1H-indol-7-yl)-2-(3-((5-pentylpyrimidin-2-yl)oxy)pyrrolidin-1-yl)acetamide]",10 to 100 nM
5,"Cc1cnc(Nc2cc(C)n(C)n2)nc1-c1c[nH]c2c(NC(=O)CN3CC[C@H](Oc4ccc(CN5CCN(C)CC5)cc4)C3)cccc12 [Example 103, (S)-N-(3-(2-((1,5-dimethyl-1H-pyrazol-3-yl)amino)-5-methylpyrimidin-4-yl)-1H-indol-7-yl)-2-(3-(4-((4-methylpiperazin-1-yl)methyl)phenoxy)pyrrolidin-1-yl)acetamide]",10 to 100 nM
6,"Cc1cnc(Nc2cc(C)n(C)n2)nc1-c1c[nH]c2c(NC(=O)CN3CC[C@H](Oc4ccnn4C)C3)cccc12 [Example 104, (S)-N-(3-(2-((1,5-dimethyl-1H-pyrazol-3-yl)amino)-5-methylpyrimidin-4-yl)-1H-indol-7-yl)-2-(3-((1-methyl-1H-pyrazol-5-yl)oxy)pyrrolidin-1-yl)acetamide]",< 10 nM
7,"Cc1cnc(Nc2cc(C)n(C)n2)nc1-c1c[nH]c2c(NC(=O)CN3CC[C@H](Oc4ccn(C)n4)C3)cccc12 [Example 105, (S)-N-(3-(2-((1,5-dimethyl-1H-pyrazol-3-yl)amino)-5-methylpyrimidin-4-yl)-1H-indol-7-yl)-2-(3-((1-methyl-1H-pyrazol-3-yl)oxy)pyrrolidin-1-yl)acetamide]",< 10 nM
8,"COC(=O)c1sc2ccccc2c1O[C@H]1CCN(CC(=O)Nc2cccc3c(-c4nc(Nc5cc(C)n(C)n5)ncc4C)c[nH]c23)C1 [Example 106, methyl (S)-3-((1-(2-((3-(2-((1,5-dimethyl-1H-pyrazol-3-yl)amino)-5-methylpyrimidin-4-yl)-1H-indol-7-yl)amino)-2-oxoethyl)pyrrolidin-3-yl)oxy)benzo[b]thiophene-2-carboxylate]",100 to 1000 nM
9,"COC(=O)c1sccc1O[C@H]1CCN(CC(=O)Nc2cccc3c(-c4nc(Nc5cc(C)n(C)n5)ncc4C)c[nH]c23)C1 [Example 107, methyl (S)-3-((1-(2-((3-(2-((1,5-dimethyl-1H-pyrazol-3-yl)amino)-5-methylpyrimidin-4-yl)-1H-indol-7-yl)amino)-2-oxoethyl)pyrrolidin-3-yl)oxy)thiophene-2-carboxylate]",< 10 nM
10,"Cc1cnc(Nc2cc(C)n(C)n2)nc1-c1c[nH]c2c(NC(=O)CN3CC[C@H](Oc4ccsc4C(=O)O)C3)cccc12 [Example 108, (S)-3-((1-(2-((3-(2-((1,5-dimethyl-1H-pyrazol-3-yl)amino)-5-methylpyrimidin-4-yl)-1H-indol-7-yl)amino)-2-oxoethyl)pyrrolidin-3-yl)oxy)thiophene-2-carboxylic acid]",< 10 nM
11,"Cc1cnc(Nc2cc(C)n(C)n2)nc1-c1c[nH]c2c(NC(=O)CN3CC[C@H](Oc4ccsc4C(N)=O)C3)cccc12 [Example 109, (S)-3-((1-(2-((3-(2-((1,5-dimethyl-1H-pyrazol-3-yl)amino)-5-methylpyrimidin-4-yl)-1H-indol-7-yl)amino)-2-oxoethyl)pyrrolidin-3-yl)oxy)thiophene-2-carboxamide]",< 10 nM
12,"CNC(=O)c1sccc1O[C@H]1CCN(CC(=O)Nc2cccc3c(-c4nc(Nc5cc(C)n(C)n5)ncc4C)c[nH]c23)C1 [Example 110, (S)-3-((1-(2-((3-(2-((1,5-dimethyl-1H-pyrazol-3-yl)amino)-5-methylpyrimidin-4-yl)-1H-indol-7-yl)amino)-2-oxoethyl)pyrrolidin-3-yl)oxy)-N-methylthiophene-2-carboxamide]",< 10 nM
13,"Cc1cnc(Nc2cc(C)n(C)n2)nc1-c1c[nH]c2c(NC(=O)CN3CC[C@H](Oc4ccsc4C(=O)NC4CC4)C3)cccc12 [Example 111, (S)-N-cyclopropyl-3-((1-(2-((3-(2-((1,5-dimethyl-1H-pyrazol-3-yl)amino)-5-methylpyrimidin-4-yl)-1H-indol-7-yl)amino)-2-oxoethyl)pyrrolidin-3-yl)oxy)thiophene-2-carboxamide]",< 10 nM
14,"Cc1cc(O[C@H]2CCN(CC(=O)Nc3cccc4c(-c5nc(Nc6cc(C)n(C)n6)ncc5C)c[nH]c34)C2)no1 [Example 112, (S)-N-(3-(2-((1,5-dimethyl-1H-pyrazol-3-yl)amino)-5-methylpyrimidin-4-yl)-1H-indol-7-yl)-2-(3-((5-methylisoxazol-3-yl)oxy)pyrrolidin-1-yl)acetamide]",10 to 100 nM
15,"Cc1cnc(Nc2cc(C)n(C)n2)nc1-c1c[nH]c2c(NC(=O)CN3CC[C@H](Oc4noc5ccccc45)C3)cccc12 [Example 113, (S)-2-(3-(benzo[d]isoxazol-3-yloxy)pyrrolidin-1-yl)-N-(3-(2-((1,5-dimethyl-1H-pyrazol-3-yl)amino)-5-methylpyrimidin-4-yl)-1H-indol-7-yl)acetamide]",10 to 100 nM
16,"Cc1cnc(Nc2cc(C)n(C)n2)nc1-c1c[nH]c2c(NC(=O)CN3CC[C@H](Oc4ccsn4)C3)cccc12 [Example 114, (S)-N-(3-(2-((1,5-dimethyl-1H-pyrazol-3-yl)amino)-5-methylpyrimidin-4-yl)-1H-indol-7-yl)-2-(3-(isothiazol-3-yloxy)pyrrolidin-1-yl)acetamide]",10 to 100 nM
17,"Cc1cnc(Nc2cc(C)n(C)n2)nc1-c1c[nH]c2c(NC(=O)CN3CC[C@H](Oc4ccsc4C)C3)cccc12 [Example 115, (S)-N-(3-(2-((1,5-dimethyl-1H-pyrazol-3-yl)amino)-5-methylpyrimidin-4-yl)-1H-indol-7-yl)-2-(3-((2-methylthiophen-3-yl)oxy)pyrrolidin-1-yl)acetamide]",10 to 100 nM
18,"Cc1cnc(Nc2cc(C)n(C)n2)nc1-c1c[nH]c2c(NC(=O)CN3CC[C@H](Oc4cc[nH]n4)C3)cccc12 [Example 116, (S)-2-(3-((1H-pyrazol-3-yl)oxy)pyrrolidin-1-yl)-N-(3-(2-((1,5-dimethyl-1H-pyrazol-3-yl)amino)-5-methylpyrimidin-4-yl)-1H-indol-7-yl)acetamide]",10 to 100 nM
19,"Cc1cnc(Nc2cc(C)n(C)n2)nc1-c1c[nH]c2c(NC(=O)CN3CC[C@H](Oc4ccon4)C3)cccc12 [Example 118, (S)-N-(3-(2-((1,5-dimethyl-1H-pyrazol-3-yl)amino)-5-methylpyrimidin-4-yl)-1H-indol-7-yl)-2-(3-(isoxazol-3-yloxy)pyrrolidin-1-yl)acetamide]",< 10 nM
20,"Cc1cnc(Nc2cc(C)n(C)n2)nc1-c1c[nH]c2c(NC(=O)CN3CC[C@H](Oc4cc(N)[nH]n4)C3)cccc12 [Example 119, (S)-2-(3-((5-amino-1H-pyrazol-3-yl)oxy)pyrrolidin-1-yl)-N-(3-(2-((1,5-dimethyl-1H-pyrazol-3-yl)amino)-5-methylpyrimidin-4-yl)-1H-indol-7-yl)acetamide]",10 to 100 nM
21,"COC(=O)c1[nH]ccc1O[C@H]1CCN(CC(=O)Nc2cccc3c(-c4nc(Nc5cc(C)n(C)n5)ncc4C)c[nH]c23)C1 [Example 120, methyl (S)-3-((1-(2-((3-(2-((1,5-dimethyl-1H-pyrazol-3-yl)amino)-5-methylpyrimidin-4-yl)-1H-indol-7-yl)amino)-2-oxoethyl)pyrrolidin-3-yl)oxy)-1H-pyrrole-2-carboxylate]",< 10 nM
22,"CCOC(=O)c1cnoc1O[C@H]1CCN(CC(=O)Nc2cccc3c(-c4nc(Nc5cc(C)n(C)n5)ncc4C)c[nH]c23)C1 [Example 121, ethyl (S)-5-((1-(2-((3-(2-((1,5-dimethyl-1H-pyrazol-3-yl)amino)-5-methylpyrimidin-4-yl)-1H-indol-7-yl)amino)-2-oxoethyl)pyrrolidin-3-yl)oxy)isoxazole-4-carboxylate]",< 10 nM
23,"Cc1cnc(Nc2cc(C)n(C)n2)nc1-c1c[nH]c2c(NC(=O)CN3CC[C@H](Oc4cc(C(N)=O)on4)C3)cccc12 [Example 122, (S)-3-((1-(2-((3-(2-((1,5-dimethyl-1H-pyrazol-3-yl)amino)-5-methylpyrimidin-4-yl)-1H-indol-7-yl)amino)-2-oxoethyl)pyrrolidin-3-yl)oxy)isoxazole-5-carboxamide]",10 to 100 nM
24,"CNC(=O)c1cc(O[C@H]2CCN(CC(=O)Nc3cccc4c(-c5nc(Nc6cc(C)n(C)n6)ncc5C)c[nH]c34)C2)no1 [Example 123, (S)-3-((1-(2-((3-(2-((1,5-dimethyl-1H-pyrazol-3-yl)amino)-5-methylpyrimidin-4-yl)-1H-indol-7-yl)amino)-2-oxoethyl)pyrrolidin-3-yl)oxy)-N-methylisoxazole-5-carboxamide]",10 to 100 nM
